The nature of data set [1]: Chemical stability (RP-HPLC normalized purity after incubation at 40° C.). In kind it is physicochemical. As to conditions: 14-day incubation, 0.2 mg/ml, normalized purity (area-%); for pH 7 normalized stability: pH 7, 40° C. The protocol:
Samples of each test peptide were dissolved in MILLIQ™ water, and the pH of the solution was adjusted to pH 6, 7, 7.5 or 9 using either HCl or NaOH. The final peptide concentration was 0.2 mg/ml. Samples were placed in glass vials and incubated at 40° C. The samples were analyzed by RP-HPLC on a C18 column with gradient elution using an acetonitrile/TFA/water eluent system. The area-percentage (area-%) of the main peak after incubation time T=t (relative to time T=0) was determined by UV spectroscopy at 220 nm.
The purity was first determined as follows: Purity(area-%)=(area of main peak/total area of all peaks)×100.
The purity was then normalized between time points by setting purity at time 0 (T=0) to 100 for each pH value for a given peptide, as follows: Normalized area-% at time t(T=t)=[area-%(T=t)/area-%(T=0)]×100.
The chemical stability assessment results after 14-day incubation (in the form of normalized purity values) are summarized in Table 4.

Data set [2] in a line: Solubility assessment (turbidity absorbance at 325 nm). In kind it is physicochemical. As to the method: A stock solution of the test peptide (2 mg/ml; determined from the weighed amount of peptide) in demineralized water adjusted to pH 2.5 with HCl was prepared, and aliquots were diluted 1:1 in 100 mM acetate buffer (pH 4.0 and pH 5.0), 100 mM histidine buffer (pH 6.0 and pH 7.0) and 100 mM phosphate buffer (pH 6.0, pH 7.0 and pH 7.5), respectively, and loaded in a standard flat-bottom, non-sterile 96-well UV Microplate. The absorbance of samples (single samples, n=1) at 280 and 325 nm was measured in an absorbance-based plate reader, which was preheated to ambient temperature (typically 25° C.).

The mark [3] stands for this setting: 100 mM acetate buffer pH 4.0, ambient temperature, read-out: Solubility Acetate buffer pH 4.
Where [4] appears, read: 100 mM acetate buffer pH 5.0, ambient temperature, read-out: Solubility Acetate buffer pH 5.
Setting [5] is: 100 mM histidine buffer pH 6.0, ambient temperature, read-out: Solubility Histidine buffer pH 6.
[6] abbreviates: 100 mM histidine buffer pH 7.0, ambient temperature, read-out: Solubility Histidine buffer pH 7.
Where [7] appears, read: 100 mM phosphate buffer pH 6.0, ambient temperature, read-out: Solubility Phosphate buffer pH 6.
[8] abbreviates: 100 mM phosphate buffer pH 7.0, ambient temperature, read-out: Solubility Phosphate buffer pH 7.
The mark [9] stands for this setting: 100 mM phosphate buffer pH 7.5, ambient temperature, read-out: Solubility Phosphate buffer pH 7.5.

Read-outs that look alike come from different tables or passages of the source. *1 amine or outer side, *2 acyl side, *3 side chain or, on linkers, in order; H or OH if unused. Where a SMILES comes first, the peptide text is derived from it. Side-chain parts run from the residue outwards. [ ]: non-standard residue; d: D form. The star is where a group is joined. C20 diacid = O=C(O)CCCCCCCCCCCCCCCCCCC(=O)*; γGlu = O=C(O)[C@H](CCC(=O)[*:2])N[*:1]; AEEA = NCCOCCOCC(=O)O; Aib = CC(C)(N)C(=O)O A value given as a limit tells only on which side of the number the result lay.

One may read the solubility as the dissolved amount per volume that the medium holds. `CC[C@H](C)[C@H](NC(=O)[C@H](Cc1ccccc1)NC(=O)[C@H](CC(=O)O)NC(=O)[C@H](CCCNC(=N)N)NC(=O)[C@H](C)NC(=O)[C@H](C)NC(=O)[C@H](CCC(N)=O)NC(=O)[C@H](CCCCNC(=O)CC[C@H](NC(=O)CCCCCCCCCCCCCCCCC(=O)O)C(=O)O)NC(=O)[C@H](CC(=O)O)NC(=O)[C@H](CC(C)C)NC(=O)[C@@H](NC(=O)[C@@H](NC(=O)[C@H](C)NC(=O)[C@H](CC(C)C)NC(=O)[C@H](CCC(=O)O)NC(=O)[C@H](CO)NC(=O)[C@@H](NC(=O)[C@H](Cc1ccccc1)NC(=O)[C@@H](NC(=O)CNC(=O)[C@H](CCC(=O)O)NC(=O)C(C)(C)NC(=O)[C@@H](N)Cc1c[nH]cn1)[C@@H](C)O)[C@@H](C)O)[C@@H](C)O)[C@@H](C)CC)C(=O)N[C@@H](C)C(=O)N[C@@H](Cc1c[nH]c2ccccc12)C(=O)N[C@@H](CC(C)C)C(=O)N[C@H](C(=O)N[C@@H](CCC(N)=O)C(=O)N[C@@H](Cc1c[nH]cn1)C(=O)N[C@@H](CCCCN)C(=O)N[C@H](C(=O)N[C@H](C(=O)N[C@@H](CC(=O)O)C(=O)O)[C@@H](C)O)[C@@H](C)CC)[C@@H](C)CC` [Compound 19] (HELM PEPTIDE1{H.[Aib].E.G.T.F.T.S.E.L.A.T.I.L.D.K.Q.A.A.R.D.F.I.A.W.L.I.Q.H.K.I.T.D}|PEPTIDE2{[O=C(O)CCCCCCCCCCCCCCCCC(=O)[*:2]].[gGlu]}$PEPTIDE1,PEPTIDE2,16:R3-2:R2$$$V2.0): in data set [1] (pH 6, 40° C.), the “pH 6 normalized stability” value is reported as “A (>90% normalised stability)”. In data set [1], the “pH 7 normalized stability” value was “A (>90% normalised stability)”. In addition, the solubility was less than 1000 µg/mL in data set [2] (setting [3]); less than 1000 µg/mL in data set [2] (setting [4]); not below 1000 µg/mL in data set [2] (setting [5]); not below 1000 µg/mL in data set [2] (setting [6]); not below 1000 µg/mL in data set [2] (setting [7]); not below 1000 µg/mL in data set [2] (setting [8]). For the same compound, in data set [2] (setting [9]), the solubility is not below 1000 µg/mL.

Turning to `CC[C@H](C)[C@H](NC(=O)[C@H](Cc1ccccc1)NC(=O)[C@H](CC(=O)O)NC(=O)[C@H](CCCNC(=N)N)NC(=O)[C@H](C)NC(=O)[C@H](C)NC(=O)[C@H](CCC(N)=O)NC(=O)[C@H](CCCCNC(=O)CC[C@H](NC(=O)CCCCCCCCCCCCCCCCC(=O)O)C(=O)O)NC(=O)[C@H](CC(=O)O)NC(=O)[C@H](CC(C)C)NC(=O)[C@@H](NC(=O)[C@@H](NC(=O)[C@H](C)NC(=O)[C@H](CC(C)C)NC(=O)[C@H](CCC(=O)O)NC(=O)[C@H](CO)NC(=O)[C@@H](NC(=O)[C@H](Cc1ccccc1)NC(=O)[C@H](CO)NC(=O)CNC(=O)[C@H](CCC(=O)O)NC(=O)C(C)(C)NC(=O)[C@@H](N)Cc1c[nH]cn1)[C@@H](C)O)[C@@H](C)O)[C@@H](C)CC)C(=O)N[C@@H](C)C(=O)N[C@@H](Cc1c[nH]c2ccccc12)C(=O)N[C@@H](CC(C)C)C(=O)N[C@H](C(=O)N[C@@H](Cc1c[nH]cn1)C(=O)N[C@@H](Cc1c[nH]cn1)C(=O)N[C@@H](CCCCN)C(=O)N[C@H](C(=O)N[C@H](C(=O)N[C@@H](CC(=O)O)C(=O)O)[C@@H](C)O)[C@@H](C)CC)[C@@H](C)CC` [Compound 26] (HELM PEPTIDE1{H.[Aib].E.G.S.F.T.S.E.L.A.T.I.L.D.K.Q.A.A.R.D.F.I.A.W.L.I.H.H.K.I.T.D}|PEPTIDE2{[O=C(O)CCCCCCCCCCCCCCCCC(=O)[*:2]].[gGlu]}$PEPTIDE1,PEPTIDE2,16:R3-2:R2$$$V2.0), in data set [1], the “pH 7 normalized stability” value is “A (>90% normalised stability)”. In addition, the solubility is not below 1000 µg/mL in data set [2] (setting [3]); less than 1000 µg/mL in data set [2] (setting [4]); less than 1000 µg/mL in data set [2] (setting [5]); not below 1000 µg/mL in data set [2] (setting [6]); less than 1000 µg/mL in data set [2] (setting [7]); not below 1000 µg/mL in data set [2] (setting [8]). Besides, in data set [2] (setting [9]), the solubility was not below 1000 µg/mL.

Take `CC[C@H](C)[C@H](NC(=O)[C@H](CC(C)C)NC(=O)[C@H](Cc1c[nH]c2ccccc12)NC(=O)[C@H](C)NC(=O)[C@@H](NC(=O)[C@H](Cc1ccccc1)NC(=O)[C@H](CC(=O)O)NC(=O)[C@H](CCCNC(=N)N)NC(=O)[C@H](C)NC(=O)[C@H](C)NC(=O)[C@H](CCC(N)=O)NC(=O)[C@H](CCCCNC(=O)COCCOCCNC(=O)[C@H](CCCCN)NC(=O)[C@H](CCC(=O)O)NC(=O)[C@H](CCCCN)NC(=O)CC[C@H](NC(=O)CCCCCCCCCCCCCCCCCCC(=O)O)C(=O)O)NC(=O)[C@H](CC(=O)O)NC(=O)[C@H](CC(C)C)NC(=O)[C@@H](NC(=O)[C@@H](NC(=O)[C@H](C)NC(=O)[C@H](CC(C)C)NC(=O)[C@H](CCC(=O)O)NC(=O)[C@H](CO)NC(=O)[C@@H](NC(=O)[C@H](Cc1ccccc1)NC(=O)[C@H](CO)NC(=O)CNC(=O)[C@H](CCC(=O)O)NC(=O)C(C)(C)NC(=O)[C@@H](N)Cc1c[nH]cn1)[C@@H](C)O)[C@@H](C)O)[C@@H](C)CC)[C@@H](C)CC)C(=O)N[C@@H](C)C(=O)N[C@@H](Cc1c[nH]cn1)C(=O)N[C@@H](CCCCN)C(=O)N[C@H](C(=O)N[C@H](C(=O)N[C@@H](CC(=O)O)C(=O)O)[C@@H](C)O)[C@@H](C)CC` [Compound 58] (HELM PEPTIDE1{H.[Aib].E.G.S.F.T.S.E.L.A.T.I.L.D.K.Q.A.A.R.D.F.I.A.W.L.I.A.H.K.I.T.D}|PEPTIDE2{[O=C(O)CCCCCCCCCCCCCCCCCCC(=O)[*:2]].[gGlu].K.E.K.[O=C(COCCOCCN[*:1])[*:2]]}$PEPTIDE1,PEPTIDE2,16:R3-6:R2$$$V2.0): the “pH 7 normalized stability” value in data set [1] is “A (>90% normalised stability)”.

In the case of `CC[C@H](C)[C@H](NC(=O)[C@H](Cc1ccccc1)NC(=O)[C@H](CC(=O)O)NC(=O)[C@H](CCCCNC(=O)COCCOCCNC(=O)COCCOCCNC(=O)[C@H](CCCCN)NC(=O)[C@H](CCC(=O)O)NC(=O)[C@H](CCCCN)NC(=O)CC[C@H](NC(=O)CCCCCCCCCCCCCCCCCCC(=O)O)C(=O)O)NC(=O)[C@H](C)NC(=O)[C@H](C)NC(=O)[C@H](CCC(N)=O)NC(=O)[C@H](CCC(=O)O)NC(=O)[C@H](CC(=O)O)NC(=O)[C@H](CC(C)C)NC(=O)[C@@H](NC(=O)[C@@H](NC(=O)[C@H](C)NC(=O)[C@H](CC(C)C)NC(=O)[C@H](CCC(=O)O)NC(=O)[C@H](CO)NC(=O)[C@@H](NC(=O)[C@H](Cc1ccccc1)NC(=O)[C@@H](NC(=O)CNC(=O)[C@H](CCC(=O)O)NC(=O)C(C)(C)NC(=O)[C@@H](N)Cc1c[nH]cn1)[C@@H](C)O)[C@@H](C)O)[C@@H](C)O)[C@@H](C)CC)C(=O)N[C@@H](C)C(=O)N[C@@H](Cc1c[nH]c2ccccc12)C(=O)N[C@@H](CC(C)C)C(=O)N[C@H](C(=O)N[C@@H](CCC(=O)O)C(=O)N[C@@H](Cc1c[nH]cn1)C(=O)N[C@@H](CCCCN)C(=O)N[C@H](C(=O)N[C@H](C(=O)N[C@@H](CC(=O)O)C(=O)O)[C@@H](C)O)[C@@H](C)CC)[C@@H](C)CC` [Compound 67] (H-H[Aib]EGTFTSELATILDEQAAK([AEEA-AEEA-Lys-Glu-Lys-γGlu-C20 diacid])DFIAWLIEHKITD-OH), the “pH 7 normalized stability” value in data set [1] is on record as “A (>90% normalised stability)”.

Regarding `CC[C@H](C)[C@H](NC(=O)[C@H](Cc1ccccc1)NC(=O)[C@H](CC(=O)O)NC(=O)[C@H](CCCCNC(=O)COCCOCCNC(=O)[C@H](CCCCN)NC(=O)[C@H](CCC(=O)O)NC(=O)[C@H](CCCCN)NC(=O)CC[C@H](NC(=O)CCCCCCCCCCCCCCCCCCC(=O)O)C(=O)O)NC(=O)[C@H](C)NC(=O)[C@H](C)NC(=O)[C@H](CCCCN)NC(=O)[C@H](C)NC(=O)[C@H](CC(=O)O)NC(=O)[C@H](CC(C)C)NC(=O)[C@@H](NC(=O)[C@@H](NC(=O)[C@H](C)NC(=O)[C@H](CC(C)C)NC(=O)[C@H](CCC(=O)O)NC(=O)[C@H](CO)NC(=O)[C@@H](NC(=O)[C@H](Cc1ccccc1)NC(=O)[C@H](CO)NC(=O)CNC(=O)[C@H](CCC(=O)O)NC(=O)C(C)(C)NC(=O)[C@@H](N)Cc1c[nH]cn1)[C@@H](C)O)[C@@H](C)O)[C@@H](C)CC)C(=O)N[C@@H](C)C(=O)N[C@@H](Cc1c[nH]c2ccccc12)C(=O)N[C@@H](CC(C)C)C(=O)N[C@H](C(=O)N[C@@H](CCC(=O)O)C(=O)N[C@@H](Cc1c[nH]cn1)C(=O)N[C@@H](CCCCN)C(=O)N[C@H](C(=O)N[C@H](C(=O)N[C@@H](CC(=O)O)C(=O)O)[C@@H](C)O)[C@@H](C)CC)[C@@H](C)CC` [Compound 68] (HELM PEPTIDE1{H.[Aib].E.G.S.F.T.S.E.L.A.T.I.L.D.A.K.A.A.K.D.F.I.A.W.L.I.E.H.K.I.T.D}|PEPTIDE2{[O=C(O)CCCCCCCCCCCCCCCCCCC(=O)[*:2]].[gGlu].K.E.K.[O=C(COCCOCCN[*:1])[*:2]]}$PEPTIDE1,PEPTIDE2,20:R3-6:R2$$$V2.0), the “pH 7 normalized stability” value in data set [1] is reported as “A (>90% normalised stability)”.

Source of the values: patent publication US11395847B2, “Acylated GLP-1/GLP-2 dual agonists” (Zealand Pharma A/S, priority 2016, dated 2022).
